Experimental data taken from ChEMBL document CHEMBL1142424, “Octanorcucurbitane and cucurbitane triterpenoids from the tubers of Hemsleya endecaphylla with HIV-1 inhibitory activity” (J Nat Prod, 2008).
Values after ≈ are worked out from the molar mass of the structure shown.

Tests used:
[1] = Cytotoxicity against human C8166 cells by MTT method; assay type: cell-based
[2] = test system: Human immunodeficiency virus 1; test: Antiviral activity against HIV1 in C8166 cells after 72 hrs; assay type: functional, organism-based; settings: Human immunodeficiency virus 1, C8166, 72 h
[3] = Selectivity index, ratio of CC50 for human C8166 cells to EC50 for HIV1; assay type: functional

| Compound | CC50 [1] | EC50 [2] | Ratio CC50/EC50 [3] |
| --- | --- | --- | --- |
| CC(=O)OC(C)(C)/C=C/C(=O)[C@](C)(O)[C@H]1[C@H](O)C[C@@]2(C)[C@@H]3CC=C4[C@@H](C[C@H](O)C(=O)C4(C)C)[C@]3(C)C(=O)C[C@]12C [CUCURBITACIN B] | 1.5 µg/mL (≈ 2.68 µM) |  |  |
| CC(C)(O)/C=C/C(=O)[C@](C)(O)[C@H]1[C@H](O)C[C@@]2(C)[C@@H]3CC=C4[C@@H](C=C(O)C(=O)C4(C)C)[C@]3(C)C(=O)C[C@]12C [CUCURBITACIN I] | 14.4 µg/mL (≈ 28 µM) | 0.7 µg/mL (≈ 1.36 µM) | 20.6 |
| CC(C)(O)/C=C/C[C@@](C)(O)[C@H]1[C@H](O)C[C@@]2(C)[C@@H]3CC=C4[C@@H](C[C@H](O)C(=O)C4(C)C)[C@]3(C)C(=O)C[C@]12C | 121 µg/mL (≈ 241 µM) | 15.8 µg/mL (≈ 31.4 µM) | 7.7 |
| CC(=O)OC(C)(C)/C=C/C(=O)[C@](C)(O)[C@H]1[C@H](O)C[C@@]2(C)[C@@H]3CC=C4[C@H](C[C@H](O)C(=O)C4(C)C)[C@]3(C)C(=O)C[C@]12C [CUCURBITACIN B] |  | 0.09 µg/mL (≈ 0.161 µM) | 16.7 |
| CC(=O)OC(C)(C)CCC(=O)[C@](C)(O)[C@H]1[C@H](O)C[C@@]2(C)[C@@H]3CC=C4[C@@H](C=C(O)C(=O)C4(C)C)[C@]3(C)C(=O)C[C@]12C | 21.6 µg/mL (≈ 38.7 µM) | 2.4 µg/mL (≈ 4.3 µM) | 9.2 |
| CC1(C)C(=O)C(O)=C[C@@H]2C1=CC[C@@H]1[C@@]2(C)C(=O)C[C@]2(C)CC(=O)C[C@@]12C [ENDECAPHYLLACIN B] | 62 µg/mL (≈ 174 µM) | 12 µg/mL (≈ 33.7 µM) | 5 |
| CC(C)(O)CCC(=O)[C@@](C)(O)[C@H]1[C@H](O)C[C@@]2(C)[C@@H]3CC=C4[C@@H](C[C@H](O)C(=O)C4(C)C)[C@]3(C)C(=O)C[C@]12C | 6.5 µg/mL (≈ 12.5 µM) | 0.13 µg/mL (≈ 0.251 µM) | 50 |
| CC(=O)OC(C)(C)CCC(=O)[C@](C)(O)[C@H]1[C@H](O)C[C@@]2(C)[C@@H]3CC=C4[C@@H](C[C@H](O)C(=O)C4(C)C)[C@]3(C)C(=O)C[C@]12C [23,24-DIHYDROCUCURBITACIN B] | 25.5 µg/mL (≈ 45.5 µM) | 4.2 µg/mL (≈ 7.49 µM) | 6.1 |
| Cc1cn([C@H]2C[C@H](N=[N+]=[N-])[C@@H](CO)O2)c(=O)[nH]c1=O [ZIDOVUDINE] | > 200 µg/mL | 0.0034 µg/mL (≈ 0.0127 µM) | >50000 |
| CC1(C)C(=O)[C@@H](O)C[C@@H]2C1=CC[C@@H]1[C@@]2(C)C(=O)C[C@]2(C)CC(=O)C[C@@]12C [ENDECAPHYLLACIN A] | > 200 µg/mL | 31.6 µg/mL (≈ 88.2 µM) | >6.3 |
